Measured values published in patent US20230365590A1, “BIPHENYL COMPOUND AS IMMUNOMODULATOR, PREPARATION METHOD THEREFOR AND APPLICATION THEREOF” (SHENZHEN CHIPSCREEN BIOSCIENCES CO., LTD., priority 2020, published 2023).

Target: CD80/PD-L1 binding (recombinant human His-CD80 protein and PD-L1-Fc fusion protein) (Homo sapiens (Human), UniProt Q9NZQ7)
Test: In vitro inhibitory activity against CD80/PD-L1 binding (HTRF)
Conditions: read-out: IC50 for inhibiting CD80/PD-L1 binding in vitro
Excerpt: In addition to PD-1, PD-L1 can also play an immune inhibition role by binding to CD80. Similarly, in vitro CD80/PD-L1 binding or binding inhibition test can also be conducted by homogeneous time-resolved fluorescence (HTRF). When the anti-hFc-Eu^3+ antibody and the anti-His-XL665 antibody are used to bind to the hFC tag fused to PD-L1 and the His tag fused to CD80 respectively, and after excitation with 320 nm laser, energy can be transferred from Eu element to XL665 fluorescein due to the binding of PD-L1 and CD80 to excite the XL665 fluorescein to emit light. When an inhibitor for inhibiting interaction of PD-L1 and CD80 is added, the binding of PD-L1 and CD80 is destroyed, causing a long distance between Eu and XL665. As a result, the energy cannot be transferred, and the XL665 fluorescein will not be excited.
The recombinant human CD80 protein with His tag (His-CD80 protein, Cat #: 10698-H08H-100) and the recombinant human PD-L1-Fc fusion protein (PD-L1-Fc fusion protein, Cat #: 10084-H02H-100) were purchased from Sino Biological Inc., anti-hFc-Eu^3+ antibody and anti-His-XL665 antibody were purchased from Cisbio, and other related reagents such as a diluent buffer (Diluent buffer 5 (Cat #: 62DL5DDC) and a detection buffer (PPI-European detection buffer, Cat #: 61DB9RDF) were purchased from Cisbio. Fluorescence detector Tecan (Spark 10M) was purchased from Tecan Company in Switzerland.
The experiment process was carried out according to the flow required in the operating manual of the test reagent (Invitrogen). The process was as follows: • (1) Experiment preparation: A test compound was diluted to different concentration gradients with the dilution buffer (the highest final concentration in a 20 μL final reaction system was 10 μM). The His-CD80 protein was diluted to 800 nM (the final concentration in the 20 final reaction system was 100 nM). The PD-L1-Fc fusion protein was diluted to 16 nM (the final concentration was 2 nM). The anti-His-XL665 antibody and the anti-hFc-Eu^3+antibody were diluted 20 times and 100 times respectively with the detection buffer according to reagent requirements. • (2) First, 5 μL of the test compound, 2.5 μL of the His-CD80 fusion protein and 2.5 μL of the […] fusion protein solution were well mixed and incubated at room temperature for 15 min; then, 5 μL of the anti-His-XL665 antibody and 5 μL of the anti-hFc-Eu^3+antibody were added to the system and further incubated for 3 h before test. • (3) During the test reaction, control groups were set, including a 0% inhibitory positive control without adding the test compound and a 100% inhibitory negative control without adding the CD80 protein. All tests were conducted by use of multiple holes. • (4) The fluorescence detector Tecan (Spark 10M) was used to detect the fluorescence signal of each hole. The excitation wavelength was 320 nm, and the emission wavelengths for detection were 620 nm and 665 nm, respectively. The strength of CD80/PD-L1 binding refers to a fluorescence signal ratio Em665/Em620. • (5) Calculation formula of binding inhibition rate of test compound: Inhibition rate (%)=[1−(fluorescence signal ratio of detected hole−fluorescence signal ratio of 100% inhibition negative control)]/(fluorescence signal ratio of 0% inhibition positive control — fluorescence signal ratio of 100% inhibition negative control)×100%. The 50% inhibition concentration (IC50) was calculated after the CD80/PD-L1 binding inhibition rates of the test compound with different concentration gradients were calculated respectively.

Chain of CD80/PD-L1 binding (recombinant human His-CD80 protein and PD-L1-Fc fusion protein) (Q9NZQ7 19-239): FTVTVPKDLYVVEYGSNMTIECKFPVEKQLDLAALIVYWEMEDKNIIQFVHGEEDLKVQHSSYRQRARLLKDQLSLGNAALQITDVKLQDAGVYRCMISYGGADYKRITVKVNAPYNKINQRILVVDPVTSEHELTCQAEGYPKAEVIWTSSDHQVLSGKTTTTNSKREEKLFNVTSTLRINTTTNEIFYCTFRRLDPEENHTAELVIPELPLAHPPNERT

IC50: 2.78 nM
Structure (SMILES): COCC12CCC(CCN3CCc4c(nc(C(=O)Nc5cccc(-c6cccc(NC(=O)c7nc8c(n7C)CCN(CCC79CCC(C(=O)O)(CC7)C9)C8)c6C)c5Cl)n4C)C3)(CC1)C2 [Compound I-4, 4-(2-(2-((2′-chloro-3′-(5-(2-(4-(methoxymethyl)bicyclo[2. 2.1]heptan-1-yl)ethyl)-1-methyl-4,5,6,7-tetrahydro-1H-imidazo[4,5-c]pyridine-2-carboxamido)-2-methyl-[1 ,1′-biphenyl]-3-yl)carbamoyl)-1-methyl-1,4,6,7-tetrahydro-5H-imidazo[4,5-c]pyridin-5-yl)ethyl)bicyclo[2.2.1]heptane-1-carboxylic acid]
